Assay results published in paper PMC10178506, “Chemical and Biological Evaluation of Novel 1H-Chromeno[3,2-c]pyridine Derivatives as MAO Inhibitors Endowed with Potential Anticancer Activity” (International Journal of Molecular Sciences, 2023).
Values joined by “and” are separate entries in the source; they are usually repeats but may differ in a detail not shown here. Identical values can stand only once. Like-named read-outs stand apart in the source and are kept apart here.

How the values were obtained:
MAO B = tested on: MAO B; design: method as in PMID 32716595; settings: read-out: MAO B IC50 (previous work); cited from earlier work
human recombinant MAO A = molecular target: T1, human recombinant MAO A (Homo sapiens, UniProt P21397); assay: biochemical; format: biochemical; settings: for inhibition at 10 µM: read-out: hMAO-A % inhibition at 10 μM
T1 construct: purchased Sigma Aldrich (Milan, Italy); host or cells: baculovirus-infected insect cells
T1 sequence (P21397 1-527): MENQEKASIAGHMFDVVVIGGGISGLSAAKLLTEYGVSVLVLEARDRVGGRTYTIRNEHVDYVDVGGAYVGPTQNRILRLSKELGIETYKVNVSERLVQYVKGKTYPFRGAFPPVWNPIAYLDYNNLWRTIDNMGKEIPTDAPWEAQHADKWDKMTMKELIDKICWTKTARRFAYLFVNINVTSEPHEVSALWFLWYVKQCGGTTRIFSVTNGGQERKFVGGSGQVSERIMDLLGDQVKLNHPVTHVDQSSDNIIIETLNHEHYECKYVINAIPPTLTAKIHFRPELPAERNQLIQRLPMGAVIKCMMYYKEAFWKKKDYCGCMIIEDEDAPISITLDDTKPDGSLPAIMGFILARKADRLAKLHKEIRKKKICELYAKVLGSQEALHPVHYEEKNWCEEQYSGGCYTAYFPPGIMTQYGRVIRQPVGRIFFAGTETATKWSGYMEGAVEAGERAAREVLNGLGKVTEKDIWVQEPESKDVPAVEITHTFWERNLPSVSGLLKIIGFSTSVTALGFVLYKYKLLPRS
Method: (§1) Human isoforms of MAOs (from baculovirus-infected insect cells) and ChEs (human recombinant AChE and BChE from human serum), purchased from Sigma Aldrich (Milan, Italy), were used for inhibition assays. Experiments were performed in 96-well plates (Greiner Bio-One, Kremsmünster, Austria) on the Infinite M1000 Pro plate reader (Tecan, Cernusco s.N., Italy), using already published protocols.
After the addition of human recombinant MAO A (250 U/mg) or MAO B (59 U/mg) and a further 30 min of incubation, NaOH was added, and the fluorescence read at 310/400 nm excitation/emission wavelength. […] IC50 is expressed as mean ± SD of three independent measurements, each one performed in duplicate. For the kinetic study on the inhibition mechanism of MAO B, three diverse scalar concentrations of the inhibitor and seven concentrations of kynuramine were used.
(§2) The IC50 values, Michaelis–Menten curve fitting and inhibition constant (Ki) were calculated by nonlinear regression, using Prism software.

human recombinant MAO B = molecular target: T2, human recombinant MAO B (Homo sapiens, UniProt P27338); assay: biochemical; format: biochemical; settings: for IC50: hMAO-B IC50, mean ± S.D., determined for compounds with more than 60% inhibition at 10 μM; for MAO B inhibition mechanism: Michaelis-Menten curves' fitting, kynuramine as the substrate
T2 construct: purchased Sigma Aldrich (Milan, Italy); host or cells: baculovirus-infected insect cells
T2 sequence (P27338 1-520): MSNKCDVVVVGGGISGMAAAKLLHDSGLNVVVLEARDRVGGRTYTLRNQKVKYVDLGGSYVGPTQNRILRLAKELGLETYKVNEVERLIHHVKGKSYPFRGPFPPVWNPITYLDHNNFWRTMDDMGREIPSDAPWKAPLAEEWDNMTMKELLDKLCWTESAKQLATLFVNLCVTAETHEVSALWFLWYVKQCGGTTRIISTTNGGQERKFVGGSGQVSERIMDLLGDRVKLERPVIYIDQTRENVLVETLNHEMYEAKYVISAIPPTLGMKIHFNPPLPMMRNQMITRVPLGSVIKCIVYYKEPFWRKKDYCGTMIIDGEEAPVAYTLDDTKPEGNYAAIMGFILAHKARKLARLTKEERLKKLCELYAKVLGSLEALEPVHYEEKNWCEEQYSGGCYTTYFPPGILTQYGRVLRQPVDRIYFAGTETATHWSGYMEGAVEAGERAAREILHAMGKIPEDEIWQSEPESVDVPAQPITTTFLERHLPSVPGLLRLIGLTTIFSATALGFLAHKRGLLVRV

BChE from human serum = molecular target: T3, BChE from human serum (Homo sapiens, UniProt P06276); assay: biochemical; settings: 10 μM concentration, mean ± S.D. (n = 3), n.i. = no inhibition at 10 μM; for inhibition at 10 µM: read-out: hBChE % inhibition at 10 μM
T3 construct: ChEs (human recombinant AChE and BChE from human serum), purchased from Sigma Aldrich (Milan, Italy); purchased Sigma Aldrich (Milan, Italy); host or cells: human serum (natural source)
Method: as §1
(§3) The inhibition of human recombinant AChE or BChE from human serum was determined by applying Ellman’s spectrophotometric method as described in previously reported protocols. The AChE activity was determined in an assay solution containing AChE (0.09 U/mL), 5,5′-dithiobis(2-nitrobenzoic acid) (i.e., the Ellman’s reagent, 0.33 mM), the test compound (10 μM concentration, or seven scalar concentrations for compounds achieving > 60% enzyme inhibition at 10 μM), in 0.1 M PBS pH 8.0. […] The BChE inhibitory activity was similarly determined by using BChE (0.09 U/mL) and butyrylthiocholine iodide (5 μM) as the substrate.
as §2

human recombinant AChE = molecular target: T4, human recombinant AChE (Homo sapiens, UniProt P22303); assay: biochemical; settings: for inhibition at 10 µM: read-out: hAChE % inhibition at 10 μM
T4 construct: purchased Sigma Aldrich (Milan, Italy)
Method: as §1, §3, §2

[1] = tested on: MCF-7, human breast carcinoma cell; assay: Antiproliferative activity, sulforhodamine-B (SRB) assay, MCF-7; format: cell-based; settings: Homo sapiens, read-out: Antiproliferative activity IC50, MCF-7
Method: (§4) The SK-OV-3 ovarian cancer cell line, MCF-7 breast cancer line and HCT-116 colon cancer cell line were obtained from the National Cancer Institute, Biological Testing Branch (Frederick, MD, USA), and maintained in the logarithmic phase at 37 °C in a 5% CO2 humidified air in RPMI 1640 medium supplemented with 10% fetal calf serum, 2 mM glutamine, penicillin (100 U/mL) and streptomycin (0.1 mg/mL).
(§5) The growth inhibitory effects of compounds under investigation were compared to those of cisplatin (CDDP) and doxorubicin (DXR), used as positive controls, and evaluated by using the sulforhodamine-B (SRB) assay. Briefly, cells were seeded into 96-well microtiter plates in 100 µL of the appropriate culture medium at plating densities at 2500, 5000 and 8000 cells/well for MCF-7, HCT-116 and SKOV-3, respectively, depending upon the doubling time of individual cell lines. After seeding, microtiter plates were incubated at 37 °C for 24 h before adding the test compounds. After 24 h, several samples of each cell line were fixed in situ with cold trichloroacetic acid (TCA) to represent a measurement of the cell population at the time of compound addition. The test compounds were freshly dissolved in dimethyl sulfoxide (DMSO, 10^−2 M) and gradually diluted to different concentrations (0.79–50 µM) with a complete medium, so that the maximum DMSO/well ratio was 0.5% v/v. After the addition of different compound concentrations to triplicate wells, the plates were further incubated at 37 °C for 72 h. Cells were fixed in situ by the gentle addition of 50 µL of cold 50% w/v TCA (final concentration 10%) and incubated for 1 h at 4 °C. The supernatant was discarded, and the plates were washed with tap water and air-dried. SRB solution (100 µL) at 0.4% (w/v) in 1% acetic acid was added to each well, and the plates were incubated for 30 min at room temperature. After staining, the unbound dye was removed by washing with 1% acetic acid and the plates were air-dried. The bound stain was then solubilized with 10mM Trizma base and the absorbance was read on an automatic plate reader at 570 nm.

[2] = tested on: HCT116, colon cancer cell line; assay: Antiproliferative activity, sulforhodamine-B (SRB) assay, HCT116; format: cell-based, human; settings: Homo sapiens, read-out: Antiproliferative activity IC50, HCT116
Method: as §4, §5

[3] = tested on: SK-OV-3, human ovarian carcinoma with intrinsic resistance to cisplatin; assay: Antiproliferative activity, sulforhodamine-B (SRB) assay, SK-OV-3; format: cell-based; settings: read-out: Antiproliferative activity IC50, SK-OV-3
Method: as §4, §5

AChE = tested on: AChE; design: method as in PMID 32716595; settings: read-out: AChE IC50 (previous work); cited from earlier work
[4] = MCF7, 72 h exposure, SRB assay, mean ± S.D., >50 = less than 50% growth inhibition at 50 μM
[5] = HCT-116, 72 h exposure, SRB assay, mean ± S.D., >50 = less than 50% growth inhibition at 50 μM
[6] = Homo sapiens, SK-OV-3, 72 h, 72 h exposure, SRB assay, mean ± S.D., >50 = less than 50% growth inhibition at 50 μM

T4 sequence (P22303 32-614): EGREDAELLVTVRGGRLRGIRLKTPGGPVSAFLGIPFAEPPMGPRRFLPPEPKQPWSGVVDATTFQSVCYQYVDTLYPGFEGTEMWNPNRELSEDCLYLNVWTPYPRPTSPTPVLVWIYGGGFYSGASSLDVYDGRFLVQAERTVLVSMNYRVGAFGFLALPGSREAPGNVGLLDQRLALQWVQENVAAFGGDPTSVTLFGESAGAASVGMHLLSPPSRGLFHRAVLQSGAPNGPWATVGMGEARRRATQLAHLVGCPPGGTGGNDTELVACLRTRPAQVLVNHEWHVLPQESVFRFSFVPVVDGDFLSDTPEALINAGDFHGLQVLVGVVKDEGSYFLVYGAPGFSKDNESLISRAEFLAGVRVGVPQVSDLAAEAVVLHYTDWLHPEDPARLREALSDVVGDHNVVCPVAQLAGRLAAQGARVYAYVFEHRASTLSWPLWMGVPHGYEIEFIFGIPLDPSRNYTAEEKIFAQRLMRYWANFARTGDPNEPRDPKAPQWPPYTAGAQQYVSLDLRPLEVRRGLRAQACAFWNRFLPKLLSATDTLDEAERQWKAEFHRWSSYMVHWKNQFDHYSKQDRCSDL
T3 sequence (P06276 29-602): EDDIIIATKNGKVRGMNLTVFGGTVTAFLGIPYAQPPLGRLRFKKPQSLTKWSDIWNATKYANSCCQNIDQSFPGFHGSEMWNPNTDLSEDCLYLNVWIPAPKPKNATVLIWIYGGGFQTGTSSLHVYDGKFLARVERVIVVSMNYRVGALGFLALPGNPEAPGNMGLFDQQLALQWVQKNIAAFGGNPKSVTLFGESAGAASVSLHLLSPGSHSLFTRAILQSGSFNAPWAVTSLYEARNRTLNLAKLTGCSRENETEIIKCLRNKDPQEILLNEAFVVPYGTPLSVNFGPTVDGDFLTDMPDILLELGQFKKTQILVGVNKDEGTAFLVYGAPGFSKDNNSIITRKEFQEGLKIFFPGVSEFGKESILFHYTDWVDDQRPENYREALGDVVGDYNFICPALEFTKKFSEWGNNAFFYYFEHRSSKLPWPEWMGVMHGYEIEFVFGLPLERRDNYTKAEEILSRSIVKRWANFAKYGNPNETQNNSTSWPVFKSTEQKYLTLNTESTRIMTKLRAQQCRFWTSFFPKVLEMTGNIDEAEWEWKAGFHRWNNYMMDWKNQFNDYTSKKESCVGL

melting point | Compound | IC50 (human recombinant MAO B) | inhibition at 10 µM (human recombinant AChE) | inhibition at 10 µM (human recombinant MAO A) | inhibition at 10 µM (BChE from human serum) | IC50 [1, 4] | IC50 [2, 5] | IC50 [3, 6] | also measured
167 to 168 °C | CN1CC[C@@]2(O)Oc3ccc(Cl)cc3[C@@H](O)[C@@H]2C1 | – | – | – | – | – | – | – | –
172 to 173 °C | CN1CC[C@@]2(O)Oc3ccc(Cl)cc3[C@@H](O)[C@H]2C1 | – | – | – | – | – | – | – | –
– | CCOc1cccc2c(=O)c3c(oc12)CCN(Cc1ccccc1)C3 | – | – | – | – | – | – | – | IC50 (MAO B): 0.89 µM
– | CN1CC=C2Oc3ccc(Br)cc3C=C2C1 [2b, 8-Bromo-2,3-dihydro-2-methyl-1H-chromeno[3,2-c]pyridine] | 7.88 ± 0.02 µM | 31% | – | – | – | – | – | IC50 (human recombinant MAO A): 0.703 ± 0.012 µM; Selectivity for MAO A over MAO B (human recombinant MAO A; from MAO A and MAO B inhibition data): about tenfold; hBChE % inhibition at 10 μM (BChE from human serum): n.i.; IC50 ([1]; MCF7, 72 h): 42.9 ± 4.82 µM; IC50 ([2]; HCT-116, 72 h): > 50 µM; IC50 ([3]; Homo sapiens, SK-OV-3, 72 h): > 50 µM
– | CN1CCC2=C(C1)C(c1c[nH]c3ccc(Br)cc13)c1cc(Cl)ccc1O2 (stereo not shown) [6c, 8-Chloro-10-(5-bromo-1H-indole-3-yl)-2-methyl-2,3,4,10-tetrahydro-1H-chromeno[3,2-c]pyridine] | 3.51 ± 0.2 µM | 37% | 29% | 23% | 4.83 ± 0.79 µM | 9.4 ± 0.22 µM | 11 µM | Ki (human recombinant MAO B): 6.47 ± 0.22 µM; MAO B inhibition mechanism (human recombinant MAO B): competitive; IC50 ([3]; 72 h exposure, SRB assay, mean ± S.D., >50 = less than 50% growth inhibition at 50 μM): 11.3 ± 0.32 µM
– | CCN1C=Cc2oc3ccccc3c(=O)c2C1C#CC(F)(F)F (stereo not shown) [3c, 2-Ethyl-1-(3,3,3-trifluoroprop-1-yn-1-yl)-1,2-dihydro-10H-chromeno[3,2-c]pyridin-10-one] | – | – | 20% | 15% | 27.8 ± 9.6 µM | 47.2 ± 5.42 µM | > 50 µM | inhibition at 10 µM (human recombinant MAO B; read-out: hMAO-B % inhibition at 10 μM): 26%; hAChE % inhibition at 10 μM (human recombinant AChE): n.i.
– | COc1cccc2c(=O)c3c(oc12)C=CN(C)C3C#Cc1ccccc1 (stereo not shown) [3b, 6-Metoxy-2-methyl-1-(phenylethinyl)-1H-chromeno[3,2-c]pyridine-10(2H)-one] | 0.63 µM and 0.626 µM | 39% | 32% | 19% | 39.7 ± 11.3 µM | 36.1 ± 2.1 µM | > 50 µM | Ki (human recombinant MAO B): 1.41 ± 0.21 µM; MAO B inhibition mechanism (human recombinant MAO B): competitive; MAO B/A selectivity (human recombinant MAO B; from MAO B and MAO A inhibition data): more than twentyfold
134 to 135 °C | COc1cccc2c1O[C@]1(O)CCN(C)C[C@@H]1[C@@H]2O | – | – | – | – | – | – | – | –
– | CC(C)N1CCc2oc3ccc(Br)cc3c(=O)c2C1 | – | – | – | – | – | – | – | IC50 (MAO B): 2.23 µM; IC50 (AChE): 3.22 µM
148 to 149 °C | COc1cccc2c1O[C@]1(O)CCN(C)C[C@H]1[C@@H]2O | – | – | – | – | – | – | – | –
– | COc1ccc2[nH]cc(C3C4=C(CCN(C)C4)Oc4ccc(Cl)cc43)c2c1 (stereo not shown) [6b, 8-Chloro-10-(5-metoxy-1H-indole-3-yl)-2-methyl-2,3,4,10-tetrahydro-1H-chromeno[3,2-c]pyridine] | 4.72 ± 0.1 µM | 53% | 21% | 15% | 6.62 ± 2.7 µM | 18.6 ± 2.22 µM | 22.3 ± 1.42 µM | –
158 to 159 °C | CN1CC[C@@]2(O)Oc3ccc([N+](=O)[O-])cc3[C@@H](O)[C@H]2C1 | – | – | – | – | – | – | – | –
– | CN1CCC2=C(C1)C(c1c[nH]c3ccccc13)c1cc(Cl)ccc1O2 (stereo not shown) [6a, 8-Chloro-10-(1H-indole-3-yl)-2-methyl-2,3,4,10-tetrahydro-1H-chromeno[3,2-c]pyridine] | 7.3 ± 0.65 µM | 53% | 21% | 38% | 4.8 ± 0.81 µM | 8.62 ± 2.21 µM | 14.7 ± 2.81 µM | –
140 to 142 °C | CN1CCC2=C(C1)C(C[N+](=O)[O-])c1cc(Br)ccc1O2 (stereo not shown) | – | – | – | – | – | – | – | –
